The nature of one data set: physchem. The note with it: dehydrated ethanol, 25 °C, organic solvent or mixture.
The nature of data set [1]: Solubility of antineoplastic drugs in biocompatible pharmaceutical solvents.
For data set [2] the following is noted: cited from earlier work.
Data set [3] deals with subcutaneous transplantation of tumors. The note with it: for Survival of group after drug administration (mice alive): 11 mice at day 0.
Description: After three generations of resuscitation, cells in logarithmic growth phase were digested and suspended in complete medium. The number of cells was calculated, with the number of cells expected to be over 3×10^7/ml. The right axillary part of nude mice was disinfected by alcohol. The cell suspension was injected subcutaneously with a dose of 0.15 ml. After injection, a round translucent liquid bubble bulged up. The state of the nude mice and the growth of tumors were observed every day after injection. […] The successful nude mice were randomly divided into four groups: 11 in the positive control group, 11 in the high dose group, 11 in the low dose group and 12 in the negative control group. After grouping, intravenous injection was administered in the positive control group, with the other groups administered different tested product or blank solvent by intratumoral injection.
The longest diameter a (mm) and the shortest diameter b (mm) of tumors were measured by electronic Vernier caliper. The tumor volume of nude mice was calculated by formula: TV=ab^2/2, and the relative tumor volume (RTV) was acquired as RTV=V t/Vo. Vo was the volume of tumors before injection and V t was used to measure the volume of tumors some days after first injection. […] The mice were killed 21 days after injection for ethical reasons.
Data set [4] can be described thus: Kinematic viscosity measurement of solvents. Format: physicochemical. The note with it: 25 ° C.
The mark [5] stands for this setting: Medium Chain Triglycerides, 25 °C, oil or lipid.
The mark [6] stands for this setting: N-N dimethylacetylamide, 25 °C, organic solvent or mixture.
The mark [7] stands for this setting: PEG-300, 25 °C, organic solvent or mixture.
The mark [8] stands for this setting: Tween-80, 25 °C, organic solvent or mixture.
The mark [9] stands for this setting: glycerin, 25 °C, organic solvent or mixture.
Where [10] appears, read: PEG-400, 25 °C, organic solvent or mixture.
Setting [11] is: PEG-400, 110 °C, organic solvent or mixture.
[12] abbreviates: soybean oil, 25 °C, oil or lipid.

Values after ≈ are worked out from the molar mass of the structure shown. Like-named read-outs stand apart in the source and are kept apart here.

The values below come from US11439586B2, “Intratumour injection formulation” (US Nano Food & Drug INC, priority 2018, dated 2022).
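Wherever 30% ST, LDG/PCG is given: nude mice carrying subcutaneous right axillary tumor cell grafts, tumor volume computed as ab^2/2, negative control given blank solvent intratumorally, animals checked daily.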
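Wherever Average Tumor Volume V3 is given: nude mice carrying subcutaneous right axillary tumor cell grafts, tumor volume computed as ab^2/2, negative control given blank solvent intratumorally, animals checked daily.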
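Wherever Average Tumor Volume V6 is given: nude mice carrying subcutaneous right axillary tumor cell grafts, tumor volume computed as ab^2/2, negative control given blank solvent intratumorally, animals checked daily.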
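Wherever HV6/NV6, tumor volume relative to negative control is given: nude mice carrying subcutaneous right axillary tumor cell grafts, tumor volume computed as ab^2/2, negative control given blank solvent intratumorally, animals checked daily.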

Regarding `CC[C@@]1(O)C(=O)OCc2c1cc1n(c2=O)Cc2cc3cc(O)ccc3nc2-1` [Hydroxycamptothecine], the solubility – broadly, the concentration that dissolves in the medium under given conditions – in “physchem” was less than 1000 µg/mL; in data set [1] (setting [5]), less than 1000 µg/mL; in data set [1] (setting [6]), approximately 71400 µg/mL (≈ 196 mM); in data set [1] (setting [7]), less than 10000 µg/mL; in data set [1] (PEG-300, 90 °C, organic solvent or mixture), more than 10000 µg/mL; in data set [1] (setting [8]) it was less than 1000 µg/mL. The solubility in data set [1] (setting [9]) is less than 1000 µg/mL.
`CC(=O)O[C@H]1C(=O)[C@@]2(C)[C@H]([C@H](OC(=O)c3ccccc3)[C@]3(O)C[C@H](OC(=O)[C@H](O)[C@@H](NC(=O)c4ccccc4)c4ccccc4)C(C)=C1C3(C)C)[C@]1(OC(C)=O)CO[C@@H]1C[C@@H]2O` [Paclitaxel]: the solubility in “physchem” is more than 6000 µg/mL; in data set [1] (setting [5]) it was less than 6000 µg/mL; in data set [1] (Medium Chain Triglycerides, 120 °C, oil or lipid), more than 6000 µg/mL; in data set [1] (setting [6]), more than 50000 µg/mL; in data set [1] (setting [10]) it was less than 40000 µg/mL; in data set [1] (setting [11]) it was more than 40000 µg/mL. In addition, the solubility is less than 6000 µg/mL in data set [1] (setting [8]); more than 6000 µg/mL in data set [1] (Tween-80, 110 °C, organic solvent or mixture); less than 1000 µg/mL in data set [1] (setting [9]); less than 6000 µg/mL in data set [1] (setting [12]); more than 6000 µg/mL in data set [1] (soybean oil, 145 °C, oil or lipid). In data set [2] (mice), the “intravenous LD50” value is recorded as 12 mg/kg.
In the case of `COc1cc([C@@H]2c3cc4c(cc3[C@@H](O[C@@H]3O[C@@H]5CO[C@@H](c6cccs6)O[C@H]5[C@H](O)[C@H]3O)[C@H]3COC(=O)[C@H]23)OCO4)cc(OC)c1O` [Teniposide], the solubility in “physchem” is less than 130 µg/mL; in data set [1] (setting [5]), less than 200 µg/mL; in data set [1] (Medium Chain Triglycerides, 200 °C, oil or lipid), less than 200 µg/mL; in data set [1] (setting [6]), more than 105000 µg/mL; in data set [1] (setting [7]), less than 10000 µg/mL; in data set [1] (PEG-300, 140 °C, organic solvent or mixture), more than 50000 µg/mL. In addition, the solubility was less than 1700 µg/mL in data set [1] (setting [8]) and less than 1000 µg/mL in data set [1] (setting [9]).
For the compound `COc1cc([C@@H]2c3cc4c(cc3[C@@H](O[C@@H]3O[C@@H]5CO[C@@H](C)O[C@H]5[C@H](O)[C@H]3O)[C@H]3COC(=O)[C@H]23)OCO4)cc(OC)c1O` [etoposide], the “30% ST, LDG/PCG” value in data set [3] (30% survival time, low dose group (intratumoral) to positive control group (intravenous)) is on record as 200% (18/9 = 2). The “Average Tumor Volume V3” value in data set [3] (High dosage (intratumoral, 55 mg/kg), 3 days after first injection) turned out to be 268.5 mm^3. Besides, in data set [3] (High dosage (intratumoral, 55 mg/kg), 6 days after first injection), the “Average Tumor Volume V6” value stood at 364.2 mm^3. Besides, the “HV6/NV6, tumor volume relative to negative control” value in data set [3] (High dosage (intratumoral, 55 mg/kg), 6 days after injection) was “HV6/NV6 = 90.2%”. For the same compound, the “Average Tumor Volume V9” value in data set [3] (High dosage (intratumoral, 55 mg/kg), 9 days after first injection) is reported as 472.5 mm^3. The “Average Tumor Volume V11” value in data set [3] (High dosage (intratumoral, 55 mg/kg), 11 days after first injection) stood at 384.0 mm^3. The “Average Tumor Volume V12” value in data set [3] (High dosage (intratumoral, 55 mg/kg), 12 days after first injection) amounted to 276.3 mm^3. For the same compound, the “HV12/NV, tumor volume relative to negative control” value in data set [3] (High dosage (intratumoral, 55 mg/kg), 12 days after injection) is “HV12/NV = 38.0%”. Moreover, the “Average Tumor Volume V0” value in data set [3] (High dosage (intratumoral, 55 mg/kg), before injection) is on record as 174.4 mm^3. Also, the “Survival of group after drug administration (mice alive)” value (“Survival of group” for short) is listed as 11 in data set [3] (High dosage intratumoral, Day 6); 11 in data set [3] (High dosage intratumoral, Day 9); 11 in data set [3] (High dosage intratumoral, Day 11); 2 in data set [3] (High dosage intratumoral, Day 12); 0 in data set [3] (High dosage intratumoral, Day 15); 11 in data set [3] (IV. group, Day 6). The “Survival of group” value in data set [3] (IV. group, Day 9) is 9; in data set [3] (IV. group, Day 11), 2; in data set [3] (IV. group, Day 12), 0; in data set [3] (Low dosage intratumoral, Day 6), 11; in data set [3] (Low dosage intratumoral, Day 9), 11; in data set [3] (Low dosage intratumoral, Day 11), 11. Also, the “Survival of group” value in data set [3] (Low dosage intratumoral, Day 12) is 11; in data set [3] (Low dosage intratumoral, Day 15), 6; in data set [3] (Low dosage intratumoral, Day 18), 4; in data set [3] (Low dosage intratumoral, Day 19) it was 3; in data set [3] (Low dosage intratumoral, Day 20), 3. Besides, the MST came to 9 days in data set [3] (intravenous group (positive control)) and 15 days in data set [3] (low dosage group, intratumoral injection). Also, in data set [3] (low dosage group), the “outcome of local intratumor injection, in words” value is “superior to the intravenous injection and the negative control group”. For the same compound, the mice surviving entry in data set [3] (low dosage group (11 mice), 20 days after injection) is reported as “three”. For the same compound, the mice still alive entry in data set [3] (low dosage group (11 mice), 21 days after first injection) is listed as “three”. Besides, the “MST, HDG/PCG” value in data set [3] (median survival time, high dose group (intratumoral) to positive control group (intravenous)) is given as 122% (11/9 = 1.22). Also, the “LV12/NV (tumor volume, low dose group to negative control group)” value in data set [3] (twelve (12) days after injection, intratumoral injection, low dose group) was determined as 49.3%. The “Intravenous LD50 of the mice” value in data set [2] is “Intravenous LD50 of the mice: 15 mg/kg”.
For `CC(=O)O[C@@]12CO[C@@H]1C[C@H](O)[C@@]1(C)C(=O)[C@H](O)C3=C(C)[C@@H](OC(=O)[C@H](O)[C@@H](NC(=O)OC(C)(C)C)c4ccccc4)C[C@@](O)([C@@H](OC(=O)c4ccccc4)[C@H]21)C3(C)C` [Docetaxel], the solubility in “physchem” is 118000 to 126000 µg/mL (≈ 147 to 156 mM); in data set [1] (setting [5]), less than 10000 µg/mL; in data set [1] (Medium Chain Triglycerides, 105 °C, oil or lipid) it was 30000 to 35000 µg/mL (≈ 37.1 to 43.3 mM); in data set [1] (setting [6]) it was more than 50000 µg/mL; in data set [1] (setting [10]), less than 10000 µg/mL; in data set [1] (setting [11]), more than 40000 µg/mL. In addition, the solubility in data set [1] (setting [8]) was less than 40000 µg/mL; in data set [1] (Tween-80, 120 °C, organic solvent or mixture) it was more than 40000 µg/mL; in data set [1] (setting [9]), less than 1000 µg/mL; in data set [1] (setting [12]) it was less than 10000 µg/mL; in data set [1] (soybean oil, 140 °C, oil or lipid) it was 12500 to 15000 µg/mL (≈ 15.5 to 18.6 mM).
`CCO` [Dehydrated ethanol] registered a Kinematic viscosity measurement in data set [4] of 1.41 mm^2/s.
Still for that read-out and setting: as for `OCC(O)CO` [Glycerol], the figure is 908.8 mm^2/s.
